Test results reported in patent US12642780B2, “Methods and compositions to treat and prevent viral infections and acute respiratory distress syndrome” (priority 2020, dated 2026).

Columns and labels:
Il6 and Il1b promoters = assay: ChIP-qPCR of transcription factor recruitment to Il6 and Il1b promoters in BMDM; format: cell-based, mouse; details: LPS
Experimental: Cells were fixed using 0.75% formaldehyde for 10 min followed by 0.125 M glycine to stop the crosslinking reaction. […] Nuclei were pelleted at 1,000 g in a cold microfuge and resuspended in B buffer (50 mM Tris, pH 8.0, 5 mM EDTA and 1% SDS plus inhibitors). […] Nuclear extracts were immunoprecipitated with respective antibodies. The co-immunoprecipitated material was then subjected to qPCR analysis using specific primers.

NLRP3 inflammasome = NLRP3 inflammasome activation in LPS-primed mouse microglia; format: cell-based; details: different NLRP3 activators, metformin 0.5 mM 16 hrs
[1] = test system: alum induced peritonitis model; assay: Alum-induced peritonitis; format: in vivo, mouse
mtDNA = mtDNA synthesis and cytosolic Ox-mtDNA in BMDM; format: cell-based, mouse
Experimental: To image mtDNA synthesis, BMDM were stimulated with LPS ([…]) for 4 hrs in the presence of 10 μM EdU. Cells were then washed twice with sterile PBS and fixed in 4% PFA for 15 min followed by permeabilization with 0.02% Triton X-100 for 10 min. EdU staining was performed using a Click-iT EdU Microplate Assay Kit (Thermo Fisher Scientific). In brief, BMDMs were postfixed in EdU fixative for 5 min, and equal volumes of the EdU reaction cocktail, which was prepared immediately before use, were added to each chamber and left overnight. Primary antibody against the mitochondrial marker Atp5b was included in the EdU reaction cocktail. The next day, the BMDM were washed three times with PBS followed by incubation with secondary Alexa antibodies from Life Technologies or Jackson Immuno Research Laboratories. DAPI was used for nuclear counterstaining.
Total DNA was isolated using Allprep DNA/RNA Mini Kit (catalogue 80204, Qiagen) according to manufacturer's instructions. mtDNA was quantified by qPCR using primers specific for the mitochondrial D-loop region, cytochrome c oxidase (COX) or a specific region of mtDNA that is not inserted into nuclear DNA (non-NUMT) (Zhong et al., 2018). Nuclear DNA encoding Teri, 18S ribosomal RNA and B2m was used for normalization.
Cellular fractionation was performed using Mitochondrial Isolation kit (89874, ThermoScientific) according to manufacturer's instructions. Cytosolic mtDNA was analyzed as described (Nakahira et al., 2011). For the measurement of Ox-mtDNA, mtDNA was first purified using Allprep DNA/RNA mini kit (Qiagen) from the cytosolic fraction of BMDM as described above. The 8-OH-dG content of the mtDNA was then quantified using an 8-OHdG quantification kit (ab201734), per manufacturer's instructions.

[2] = test system: SARS-CoV-2 USA-WA1/2020 strain; assay: SARS-CoV-2 infection in hACE2 mice; format: in vivo, mouse
in vivo = details: male, C57BL/6, mouse, ip, 50 mg/kg
Experimental: Pooled mice plasma (CD-1 (ICR) MSE00PLK2, BioIVT) was selected as blank matrix for standards and quality control samples. Sample preparation procedure was adopted from literatures with minor modifications. […] The samples mix were vortexed for 2 minutes then sonicated for 1 min and centrifuged at 6100 g for 10 min. Supernatants were transferred into a new set 96-well plate, and 10 μL were injected for LC-MS/MS analysis. […] The solution was then serially diluted with 50% methanol-water to obtain standard working solutions over a concentration range of 10-2000 ng/ml. The quality control (QC) samples were prepared in three concentrations: 10, 100, and 500 ng/ml.
LC-MS/MS system was performed using an Agilent 1290 Infinity HPLC and HiP ALS (Autosampler) coupled with AB Sciex 6500 Q-Trap mass spectrometer. All data were acquired using Analyst (AB SCIEX v1.7.1). […] The mobile phase A was 20 mM ammonium acetate buffer in water and 100% acetonitrile as mobile phase B. A total 7 min gradient run with a flow rate of 0.8 ml/min was implemented. […] The mass spectrometer was operated in a positive mode using scheduled multiple reaction morning (sMRM).

With `CN(C)C(=N)NC(=N)N` [metformin, N,N-dimethylbiguanide] the “c/EBPβ and NFATc1-4 recruitment to the Il6 promoter” value (Il6 and Il1b promoters) was “inhibited”, the “Casp1 p20 and IL-1β secretion” value (NLRP3 inflammasome) was “abrogated” and the “peritoneal IL-1β and IL-6 production” value ([1]; metformin 0, 10, 50 mg/kg 30 min prior to i.p. alum) was “dose-dependent decline”. For the same molecule, the “peritoneal TNF production” value ([1]; metformin 10 or 50 mg/kg 30 min prior to i.p. alum) was “no effect”, the “inhibition of LPS-induced mtDNA synthesis by EdU-labelling” value (mtDNA; BMDM, LPS 4 hrs, metformin 0.5 mM 16 hrs) was “confirmed” and the “LPS-stimulated mtDNA synthesis” value (mtDNA; LPS-primed BMDM, metformin 0.5 mM 16 h) was “strongly inhibited”. For the same molecule, the “generation of cytoplasmic Ox-mtDNA” value (mtDNA; LPS-primed macrophages challenged with ATP or nigericin, metformin) was “blocked generation”, the “effect of AMPKα1 silencing on LPS-stimulated mtDNA synthesis and its inhibition by metformin” value (mtDNA; shPrkaa1 BMDM) was “no effect” and the “infection-associated loss of body weight” value ([2]; day 2 post-inoculation) was “slowed down”. The “immune cell infiltration, alveolar wall thickening and c/EBPβ activation” value ([2]; hACE2 Tg mice, 50 mg/kg i.p. from 2 days before infection, 6 days post-infection) was “reduced”, the “macrophages with ASC specks in lungs” value ([2]; hACE2 Tg mice, 50 mg/kg, day 6 post-infection) was “almost none” and the concentration at 1 hr (in vivo) was 440 ± 389 ng/mL.
